One may read the Ki as a dissociation constant, usually derived from enzyme kinetics or from competition with a known ligand.

The target in this assay is T1, minerocorticoid receptor (MR) (Homo sapiens, UniProt P08235).
T1 construct: made in house; host or cells: SF21 insect cells (baculovirus)
T1 sequence (P08235 1-984): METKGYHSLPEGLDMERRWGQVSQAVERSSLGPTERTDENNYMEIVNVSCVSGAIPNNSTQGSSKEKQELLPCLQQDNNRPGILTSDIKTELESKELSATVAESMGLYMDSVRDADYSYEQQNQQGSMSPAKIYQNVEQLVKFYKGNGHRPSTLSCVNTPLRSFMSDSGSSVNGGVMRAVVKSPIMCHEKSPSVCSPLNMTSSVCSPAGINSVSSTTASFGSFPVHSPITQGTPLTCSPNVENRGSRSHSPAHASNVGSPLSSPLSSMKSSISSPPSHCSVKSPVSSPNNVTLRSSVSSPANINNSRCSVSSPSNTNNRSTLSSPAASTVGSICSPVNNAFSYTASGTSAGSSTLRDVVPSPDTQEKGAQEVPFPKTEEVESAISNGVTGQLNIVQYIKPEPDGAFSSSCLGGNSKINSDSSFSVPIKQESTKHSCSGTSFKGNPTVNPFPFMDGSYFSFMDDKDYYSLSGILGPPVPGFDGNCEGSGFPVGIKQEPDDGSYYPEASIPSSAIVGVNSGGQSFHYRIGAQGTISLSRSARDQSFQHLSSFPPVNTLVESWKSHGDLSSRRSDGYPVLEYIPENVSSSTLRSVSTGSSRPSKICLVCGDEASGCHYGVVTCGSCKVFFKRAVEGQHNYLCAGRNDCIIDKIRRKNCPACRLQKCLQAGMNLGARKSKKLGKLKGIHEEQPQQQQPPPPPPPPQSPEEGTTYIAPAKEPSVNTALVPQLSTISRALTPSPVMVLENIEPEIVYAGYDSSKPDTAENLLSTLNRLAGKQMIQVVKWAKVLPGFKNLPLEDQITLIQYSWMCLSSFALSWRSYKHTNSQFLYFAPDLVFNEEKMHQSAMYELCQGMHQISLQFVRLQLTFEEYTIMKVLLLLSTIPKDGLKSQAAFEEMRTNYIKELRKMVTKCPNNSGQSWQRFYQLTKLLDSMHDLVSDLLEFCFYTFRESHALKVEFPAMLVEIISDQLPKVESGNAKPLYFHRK
As to the kind of experiment: soluble minerocorticoid receptor (MR) binding assay, [3H]-aldosterone competition. The conditions noted are these: 3-4 nM [3H]-aldosterone, 4 °C for 18 hours; Cheng-Prusoff. The source says:
For soluble minerocorticoid receptor (MR) binding assays, [^3H]-aldosterone (75-85 Ci/mmol) was purchased from New England Nuclear (Boston, MA), aldosterone was purchased from Sigma Chemical Co. (St. Louis, MO), CHAPS and DTT were purchased from Boehringer Mannheim GmbH (W. Germany) and all other reagents were purchased from Sigma.
The methods concerning growth, purification, and assays of recombinant viruses followed the protocol outlined by Summers, M.D., Smith, G.E., A Manual of Methods for Baculovirus Vectors and Insect Cell Culture Procedures, Tex. Agric. Exp. Stn. [Bull], 1987, No. 155, hereby incorporated by reference. The recombinant plasmids were cotransfected into SF21 cells with wild type AcNPV DNA, and the recombinant viruses were plaque purified.
A receptor extract was prepared from the baculovirus system, and aliquots were stored at -80 °C until used. Typical protein concentrations for these extracts were between 10 and 20 mg/ml. Stock solutions of aldosterone or other competing compounds were prepared as either 5 mM ethanol or DMSO stock solutions and serial dilutions were carried out in 1:1 DMSO-ethanol. The assay buffer consisted of the following: 25 mM sodium phosphate, 10 mM potassium fluoride, 20 mM sodium molybdate, 10% glycerol, 2 mM DTT and 0.25 mM CHAPS, pH=7.3 at room temperature.
Receptor assays were performed with a final volume of 250 µL containing from 50-75 µg of extract protein, plus 3-4 nM [^3H]-aldosterone and varying concentrations of competing ligand (0 to 10,000 nM). Assays were set up using a 96-well minitube system and incubations were carried out at 4 °C for 18 hours. Equilibrium under these conditions of buffer and temperature was achieved by 6-8 hours. Nonspecific binding was defined as that binding remaining in the presence of 1000 nM unlabeled aldosterone. At the end of the incubation period, 200 µL of 6.25% hydroxyapatite was added in wash buffer (binding buffer in the absence of DTT and CHAPS). Specific ligand binding to receptor was determined by a hydroxyapatite-binding assay according to the protocol outlined by Wecksler, W.R., Norman, A.W., An Hydroxylapatite Batch Assay for the Quantitation of 1α, 25-Dihydroxyvitamin D3-Receptor Complexes, Anal. Biochem. 1979, 92, 314-323, hereby incorporated by reference. Hydroxyapatite absorbs the receptor-ligand complex, allowing for the separation of bound from free radiolabeled ligand. The mixture was vortexed, incubated for 10 minutes at 4 °C, centrifuged, and the supernatant was removed. The hydroxyapatite pellet was washed twice more with the wash buffer. The amount of receptor-ligand complex was determined by liquid scintillation counting of the hydroxyapatite pellet after the addition of […] EcoScint A scintillation cocktail from National Diagnostics (Atlanta, GA.).
After correcting for nonspecific binding, IC50 values were determined. […] The IC50 values were determined graphically from a log-logit plot of the data. […] Standards are included in each assay and resulting Ki values are determined by use of a modified Cheng-Prusoff equation and used to calculate Ki values for "unknown analogs" as outlined by DeBlasi, A., O'Reilly, K., Motulsky, H.J., Calculating Receptor Number from Binding Experiments Using Same Compound As Radioligand and Competitor, TIPS 1989, 10.227-229, hereby incorporated by reference.
`CNc1ccc(C(c2ccc(N(C)C)cc2)c2cc([N+](=O)[O-])ccc2Cl)cc1` (stereo not shown) [Example 39, 4'-dimethylamino-4"-methylamino-2-chloro-5-nitrotriphenylmethane] gave a Ki of 2900 nM.

With `CN(C)c1ccc(C(c2ccc(N(C)C)cc2)c2cc(Cl)ccc2Cl)cc1` [Example 24, 4',4" bis(dimethylamino)-2,5-dichlorotriphenylmethane], affinity was put at a Ki of 2900 nM.

`CN(CCO)c1ccc(C(c2ccc(N(C)CCO)cc2)c2cc([N+](=O)[O-])ccc2Cl)cc1` [Example 32, 4',4" bis(N-(2-hydroxyethyl) N-methylamino)-2-chloro-5-nitrotriphenylmethane] returned a Ki of 3910 nM.

`O=[N+]([O-])c1ccc(Cl)c(C(c2ccc(NCc3ccccc3)cc2)c2ccc(NCc3ccccc3)cc2)c1` [Example 36, 4',4" bis(N-benzylamino)-2-chloro-5-nitrotriphenylmethane] returned a Ki of 2900 nM.

`CN(C)c1ccc(C(Oc2ccccc2)c2cc([N+](=O)[O-])ccc2Cl)cc1` (stereo not shown) [Example 52, phenyl-[(4'-dimethylaminophenyl)-(2-chloro-5-nitrophenyl)methyl] ether]: the Ki was found to be 3110 nM.

For `CNc1ccc(C(c2ccc(NC)cc2)c2cc([N+](=O)[O-])ccc2Cl)cc1` [Example 23, 4',4" bis(methylamino)-2-chloro-5-nitrotriphenylmethane], the Ki was greater than 10000 nM.

The molecule `CN(C)c1ccc(C(c2ccc(N(C)CCO)cc2)c2cc([N+](=O)[O-])ccc2Cl)cc1` (stereo not shown) [Example 42, 4'-dimethylamino-4"-(N-methyl-N-(2-hydroxyethyl)amino)-2-chloro-5-nitrotriphenylmethane] yielded a Ki of 2900 nM.

Consider `CC(=O)OCCN(C)c1ccc(C(c2ccc(N(C)C)cc2)c2cc([N+](=O)[O-])ccc2Cl)cc1` (stereo not shown) [Example 51, 4'-dimethylamino-4"-(N-methyl-N-(2-acetoxyethyl)amino)-2-chloro-5-nitrotriphenylmethane], for which the Ki is greater than 10000 nM.

`CC(=O)OCCN(C)c1ccc(C(c2ccc(N(C)CCOC(C)=O)cc2)c2cc([N+](=O)[O-])ccc2Cl)cc1` [Example 31, 4',4" bis(N-(2-acetoxyethyl) N-methylamino)-2-chloro-5-nitrotriphenylmethane] came in with a Ki of 3910 nM.

In turn, `CN(C)c1ccc(C(c2ccc(N(C)C)cc2)c2cc([N+](=O)[O-])ccc2Cl)cc1` [Example 1, 4',4" bis(dimethylamino)-2-chloro-5-nitrotriphenylmethane] gave a Ki of 2900 nM.

Regarding `CNc1ccc(C(c2ccc(N(C)CCOC(C)=O)cc2)c2cc([N+](=O)[O-])ccc2Cl)cc1` (stereo not shown) [Example 49, 4'-methylamino-4"-(N-(2-acetoxyethyl)-N-methylamino)-2-chloro-5-nitrotriphenylmethane], the Ki came out at 3910 nM.

Consider `CN(C)c1ccc(C(Sc2ccccc2)c2cc([N+](=O)[O-])ccc2Cl)cc1` (stereo not shown) [Example 54, phenyl-[(4'-dimethylaminophenyl)-(2-chloro-5-nitrophenyl)methyl]thioether], for which the Ki is 2900 nM.

With `CNc1ccc(C(c2ccc(NC)cc2)c2cc(Cl)ccc2Cl)cc1` [Example 27, 4',4" bis(methylamino)-2,5-dichlorotriphenylmethane], the Ki is greater than 10000 nM.

The record behind these values is EP1100483B1, “GLUCOCORTICOID-SELECTIVE ANTI-INFLAMMATORY AGENTS” (Abbott Laboratories, priority 1998, dated 2000).
